Results as given in PubChem BioAssay (NCI).
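These data come from cells grown in 96-well plates and exposed to compound for 48 hours at five concentrations. TGI: concentration producing complete growth inhibition.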

Columns and labels:
Assay in all cases: NCI anticancer screen, dose series, 48 h
A498 renal = tested on: A498 renal
OVCAR-3 ovarian = tested on: OVCAR-3 ovarian
OVCAR-4 ovarian = tested on: OVCAR-4 ovarian
MDA-MB-435 = tested on: MDA-MB-435
MDA-N = tested on: MDA-N
CAKI-1 renal = tested on: CAKI-1 renal
SW-620 colon = tested on: SW-620 colon
UO-31 renal = tested on: UO-31 renal
MOLT-4 leukemia = tested on: MOLT-4 leukemia
EKVX NSCLC = tested on: EKVX NSCLC
MDA-MB-231 breast = tested on: MDA-MB-231 breast
SK-MEL-28 melanoma = tested on: SK-MEL-28 melanoma
MCF7 breast = tested on: MCF7 breast
NCI/ADR-RES ovarian = tested on: NCI/ADR-RES ovarian
NCI-H460 lung = tested on: NCI-H460 lung
OVCAR-5 ovarian = tested on: OVCAR-5 ovarian
DU-145 prostate = tested on: DU-145 prostate
LOX IMVI melanoma = tested on: LOX IMVI melanoma
UACC-257 melanoma = tested on: UACC-257 melanoma
HS 578T breast = tested on: HS 578T breast
HL-60(TB) leukemia = tested on: HL-60(TB) leukemia
786-0 renal = tested on: 786-0 renal
HCT-15 colon = tested on: HCT-15 colon
PC-3 prostate = tested on: PC-3 prostate
COLO 205 colon = tested on: COLO 205 colon
K-562 leukemia = tested on: K-562 leukemia
SNB-19 CNS = tested on: SNB-19 CNS
HOP-92 NSCLC = tested on: HOP-92 NSCLC
CCRF-CEM leukemia = tested on: CCRF-CEM leukemia
IGROV1 ovarian = tested on: IGROV1 ovarian
A549 NSCLC = tested on: A549 NSCLC
NCI-H522 lung = tested on: NCI-H522 lung
HCT-116 colon = tested on: HCT-116 colon
RPMI-8226 leukemia = tested on: RPMI-8226 leukemia
HOP-62 NSCLC = tested on: HOP-62 NSCLC
T-47D breast = tested on: T-47D breast
M14 melanoma = tested on: M14 melanoma
SF-268 CNS = tested on: SF-268 CNS
BT-549 breast = tested on: BT-549 breast
SN12C renal = tested on: SN12C renal
SF-295 CNS = tested on: SF-295 CNS
HT29 colon = tested on: HT29 colon
NCI-H226 lung = tested on: NCI-H226 lung
U251 CNS = tested on: U251 CNS
KM12 colon = tested on: KM12 colon
SNB-75 CNS = tested on: SNB-75 CNS
OVCAR-8 ovarian = tested on: OVCAR-8 ovarian
NCI-H23 lung = tested on: NCI-H23 lung
UACC-62 melanoma = tested on: UACC-62 melanoma
SR leukemia = tested on: SR leukemia
RXF 393 renal = tested on: RXF 393 renal
SK-MEL-2 melanoma = tested on: SK-MEL-2 melanoma
MALME-3M melanoma = tested on: MALME-3M melanoma
SF-539 CNS = tested on: SF-539 CNS
ACHN renal = tested on: ACHN renal
TK-10 renal = tested on: TK-10 renal
SK-OV-3 ovarian = tested on: SK-OV-3 ovarian
SK-MEL-5 melanoma = tested on: SK-MEL-5 melanoma
HCC-2998 colon = tested on: HCC-2998 colon

With `NC(=O)NOCC1NC(=O)NC1=O` (stereo unspecified) the TGI (A498 renal) was greater than 100 µM, the TGI (OVCAR-3 ovarian) was greater than 100 µM and the TGI (OVCAR-4 ovarian) was greater than 100 µM. For the same compound, the TGI (MDA-MB-435) was greater than 100 µM, the TGI (MDA-N) was greater than 100 µM and the TGI (CAKI-1 renal) was greater than 100 µM. The TGI (SW-620 colon) was greater than 100 µM, the TGI (UO-31 renal) was greater than 100 µM and the TGI (MOLT-4 leukemia) was greater than 100 µM. It also gave a TGI (EKVX NSCLC) greater than 100 µM, a TGI (MDA-MB-231 breast) greater than 100 µM and a TGI (SK-MEL-28 melanoma) greater than 100 µM. It also gave a TGI (MCF7 breast) greater than 100 µM, a TGI (NCI/ADR-RES ovarian) greater than 100 µM and a TGI (NCI-H460 lung) greater than 100 µM. The TGI (OVCAR-5 ovarian) was greater than 100 µM, the TGI (DU-145 prostate) was greater than 100 µM and the TGI (LOX IMVI melanoma) was greater than 100 µM. It also gave a TGI (UACC-257 melanoma) greater than 100 µM, a TGI (HS 578T breast) greater than 100 µM and a TGI (HL-60(TB) leukemia) greater than 100 µM. It also gave a TGI (786-0 renal) greater than 100 µM, a TGI (HCT-15 colon) greater than 100 µM and a TGI (PC-3 prostate) greater than 100 µM. For the same compound, the TGI (COLO 205 colon) was greater than 100 µM, the TGI (K-562 leukemia) was greater than 100 µM and the TGI (SNB-19 CNS) was greater than 100 µM. The TGI (HOP-92 NSCLC) was greater than 100 µM, the TGI (CCRF-CEM leukemia) was greater than 100 µM and the TGI (IGROV1 ovarian) was greater than 100 µM. It also gave a TGI (A549 NSCLC) greater than 100 µM, a TGI (NCI-H522 lung) greater than 100 µM and a TGI (HCT-116 colon) greater than 100 µM. For the same compound, the TGI (RPMI-8226 leukemia) was greater than 100 µM, the TGI (HOP-62 NSCLC) was greater than 100 µM and the TGI (T-47D breast) was greater than 100 µM. The TGI (M14 melanoma) was greater than 100 µM, the TGI (SF-268 CNS) was greater than 100 µM and the TGI (BT-549 breast) was greater than 100 µM. For the same compound, the TGI (SN12C renal) was greater than 100 µM, the TGI (SF-295 CNS) was greater than 100 µM and the TGI (HT29 colon) was greater than 100 µM. It also gave a TGI (NCI-H226 lung) greater than 100 µM, a TGI (U251 CNS) greater than 100 µM and a TGI (KM12 colon) greater than 100 µM. For the same compound, the TGI (SNB-75 CNS) was greater than 100 µM, the TGI (OVCAR-8 ovarian) was greater than 100 µM and the TGI (NCI-H23 lung) was greater than 100 µM. It also gave a TGI (UACC-62 melanoma) greater than 100 µM, a TGI (SR leukemia) greater than 100 µM and a TGI (RXF 393 renal) greater than 100 µM. The TGI (SK-MEL-2 melanoma) was greater than 100 µM, the TGI (MALME-3M melanoma) was greater than 100 µM and the TGI (SF-539 CNS) was greater than 100 µM. It also gave a TGI (ACHN renal) greater than 100 µM, a TGI (TK-10 renal) greater than 100 µM and a TGI (SK-OV-3 ovarian) greater than 100 µM. It also gave a TGI (SK-MEL-5 melanoma) greater than 100 µM.
`CCC(c1ccc(N(C)C)cc1)C1NC(=S)NC1=O` (stereo unspecified) showed a TGI (A498 renal) greater than 100 µM, a TGI (OVCAR-4 ovarian) greater than 100 µM and a TGI (MDA-MB-435) greater than 100 µM. The TGI (MDA-N) was greater than 100 µM, the TGI (CAKI-1 renal) was greater than 100 µM and the TGI (SW-620 colon) was greater than 100 µM. For the same compound, the TGI (UO-31 renal) was greater than 100 µM, the TGI (MOLT-4 leukemia) was greater than 100 µM and the TGI (EKVX NSCLC) was greater than 100 µM. It also gave a TGI (MDA-MB-231 breast) greater than 100 µM, a TGI (SK-MEL-28 melanoma) greater than 100 µM and a TGI (MCF7 breast) greater than 100 µM. The TGI (NCI/ADR-RES ovarian) was greater than 100 µM, the TGI (NCI-H460 lung) was greater than 100 µM and the TGI (OVCAR-5 ovarian) was greater than 100 µM. It also gave a TGI (DU-145 prostate) greater than 100 µM, a TGI (LOX IMVI melanoma) greater than 100 µM and a TGI (UACC-257 melanoma) greater than 100 µM. The TGI (HS 578T breast) was greater than 100 µM, the TGI (HL-60(TB) leukemia) was 46.3 µM and the TGI (786-0 renal) was greater than 100 µM. The TGI (HCT-15 colon) was greater than 100 µM, the TGI (COLO 205 colon) was greater than 100 µM and the TGI (K-562 leukemia) was 59.6 µM. It also gave a TGI (SNB-19 CNS) greater than 100 µM, a TGI (HOP-92 NSCLC) greater than 100 µM and a TGI (CCRF-CEM leukemia) greater than 100 µM. For the same compound, the TGI (IGROV1 ovarian) was greater than 100 µM, the TGI (HCC-2998 colon) was greater than 100 µM and the TGI (A549 NSCLC) was greater than 100 µM. The TGI (NCI-H522 lung) was greater than 100 µM, the TGI (HCT-116 colon) was greater than 100 µM and the TGI (RPMI-8226 leukemia) was greater than 100 µM. The TGI (T-47D breast) was greater than 100 µM, the TGI (M14 melanoma) was greater than 100 µM and the TGI (SF-268 CNS) was greater than 100 µM. The TGI (SN12C renal) was greater than 100 µM, the TGI (SF-295 CNS) was greater than 100 µM and the TGI (HT29 colon) was greater than 100 µM. For the same compound, the TGI (NCI-H226 lung) was greater than 100 µM, the TGI (U251 CNS) was greater than 100 µM and the TGI (KM12 colon) was greater than 100 µM. For the same compound, the TGI (SNB-75 CNS) was greater than 100 µM, the TGI (OVCAR-8 ovarian) was greater than 100 µM and the TGI (NCI-H23 lung) was greater than 100 µM. The TGI (SR leukemia) was greater than 100 µM, the TGI (RXF 393 renal) was greater than 100 µM and the TGI (MALME-3M melanoma) was greater than 100 µM. For the same compound, the TGI (SF-539 CNS) was greater than 100 µM, the TGI (ACHN renal) was greater than 100 µM and the TGI (TK-10 renal) was greater than 100 µM. The TGI (SK-OV-3 ovarian) was greater than 100 µM and the TGI (SK-MEL-5 melanoma) was greater than 100 µM.
